According to publication PMC4039038 (Journal of immunology (Baltimore, Md. : 1950), 2011):

Experiments:
[1] = system: ERAP1 alleles (Ref, K528R, Q730E); experiment: LAMC hydrolysis, all three ERAP1 alleles; type: biochemical, human; conditions: no activating peptide; 25°C, up to 10 min
ERAP1 K528R [2] = experiment: LAMC hydrolysis, ERAP1 K528R; type: biochemical, human; conditions: no activating peptide, 25°C, up to 10 min
[3] = system: ERAP1 alleles (Ref, K528R, Q730E); experiment: LAMC trimming in the presence of SIINFEKL, all three ERAP1 alleles; type: biochemical, human; conditions: 100 μM SIINFEKL
ERAP1 K528R (528R) = ERAP1 K528R (528R) (Homo sapiens, UniProt Q9NZ08, K528R); experiment: Michaelis–Menten kinetics of antigenic peptide precursor trimming, ERAP1 K528R; type: biochemical
ERAP1 Q730E (730E) [4] = target: ERAP1 Q730E (730E) (Homo sapiens, UniProt Q9NZ08, Q730E); experiment: Michaelis–Menten kinetics of antigenic peptide precursor trimming, ERAP1 Q730E; type: biochemical; conditions: 730E allele; classical MM model; initial trimming rates, reactions limited to 10 min, 25°C
ERAP1 Q730E (730E) [5] = experiment: as above; type: biochemical, human; conditions: low substrate concentrations (kcat/KM); Q730E vs Ref and K528R
ERAP1 K528R [6] = experiment: Activation of LAMC trimming by SIINFEKL, ERAP1 K528R; type: biochemical, human; conditions: 100 μM SIINFEKL, 25°C, up to 10 min
ERAP1 Q730E = experiment: Activation of LAMC trimming by SIINFEKL, ERAP1 Q730E; type: biochemical, human; conditions: 100 μM SIINFEKL, 25°C, up to 10 min
ERAP1 = conditions: 8mer peptide; ref [3]; cited from earlier work
ERAP1 Q730E (rs27044) = ERAP1 Q730E (rs27044) (human, UniProt Q9NZ08-2 1-948, Q730E); experiment: enzyme kinetics
[7] = target: endoplasmic reticulum aminopeptidase 1 (ERAP1), ancestral reference sequence NP_057526 (human, UniProt Q9NZ08-2 1-948); experiment: enzyme kinetics
[8] = 528R allele, classical MM model, initial trimming rates, reactions limited to 10 min, 25°C

Molecule: Cc1cc(=O)oc2cc(NC(=O)[C@@H](N)CC(C)C)ccc12 [LAMC, L-leucine-7-amido-4-methyl coumarin]
- hydrolysis of LAMC by all three variants [1]: enzymatically active
- fold less active of ERAP1 K528R in LAMC hydrolysis (ERAP1 K528R [2]): ~ 4 fold
- trimming activity of all three alleles toward LAMC in the presence of SIINFEKL ([3]; comparison between the three alleles): comparable trimming activity

Molecule: LATFPDTLTY
- Km (ERAP1 K528R (528R); [8]): 49 ± 13 µM
- kcat (ERAP1 K528R (528R); [8]): 3.09 ± 0.203 s^–1
- kcat/KM (ERAP1 K528R (528R); [8]): 63 ± 17 × 10^3 s^–1 M^–1
- processing rate by the K528R allele relative to other alleles (ERAP1 K528R (528R); saturating conditions (kcat controls trimming rates)): twice as quickly
- Km (ERAP1 Q730E (730E) [4]): 45 ± 11 µM
- kcat (ERAP1 Q730E (730E) [4]): 1.635 ± 0.10 s^–1
- kcat/KM (ERAP1 Q730E (730E) [4]): 36 ± 9 × 10^3 s^–1 M^–1
- processing rate, fold more slowly by Q730E than by the other two alleles (ERAP1 Q730E (730E) [5]): 2 fold

Molecule: SIINFEKL
- magnitude of activation of LAMC trimming (ERAP1 K528R [6]): 4 fold
- magnitude of activation of LAMC trimming (ERAP1 Q730E): 1.6 fold
- ERAP1-mediated hydrolysis of LAMC in the presence of SIINFEKL [3]: enhanced
- substrate quality for ERAP1 (ERAP1): poor substrate

B1: LKRVVINKDT, single-amino acid extended precursor of the HLA-B27 ligand KRVVINKDT (peptide)
peptide: LKRVVINKDT
- Ki (ERAP1 Q730E (rs27044)): 132 ± 53 µM

B2: YKRFEGLTQR, single-amino acid extended precursor of the HLA-B27 ligand KRFEGLTQR (peptide)
peptide: YKRFEGLTQR
- Ki [7]: 394 ± 133 µM
